Results published in patent publication US7276502B2, “Thiazoles useful as inhibitors of protein kinases” (Vertex Pharmaceuticals Incorporated, priority 2003, dated 2007).

Key:
[1] = target: SYK (Homo sapiens, UniProt P43405); experiment: SYK inhibition assay (standard coupled enzyme assay); type: biochemical; details: coupled enzyme assay, 200 μM ATP, 4 μM poly Gly-Tyr peptide, 30° C.; read-out: Ki (SYK)
Protocol: Reactions were carried out in 100 mM HEPES (pH 7.5), 10 mM MgCl2, 25 mM NaCl, 1 mM DTT and 1.5% DMSO. Final substrate concentrations in the assay were 200 μM ATP (Sigma chemical Co.) and 4 μM poly Gly-Tyr peptide (Sigma Chemical Co.). Assays were carried out at 30° C. and 200 nM SYK. Final concentrations of the components of the coupled enzyme system were 2.5 mM phosphoenolpyruvate, 300 μM NADH, 30 μg/ml pyruvate kinase and 10 μg/ml lactate dehydrogenase.
An assay stock buffer solution was prepared containing all of the reagents listed above, with the exception of SYK, DTT, and the test compound of interest of the present invention. 56 μl of the test reaction was placed in a 96 well plate followed by the addition of 1 μl of 2 mM DMSO stock containing the test compound of the present invnetion (final compound concentration 30 μM).

[2] = target: T1, ZAP-70 (Homo sapiens, UniProt P43403); experiment: ZAP-70 inhibition assay (standard coupled enzyme assay); type: biochemical; details: 100 μM ATP, 20 μM poly-4EY peptide, 30° C., 60 nM ZAP-70
T1 sequence (P43403 1-619): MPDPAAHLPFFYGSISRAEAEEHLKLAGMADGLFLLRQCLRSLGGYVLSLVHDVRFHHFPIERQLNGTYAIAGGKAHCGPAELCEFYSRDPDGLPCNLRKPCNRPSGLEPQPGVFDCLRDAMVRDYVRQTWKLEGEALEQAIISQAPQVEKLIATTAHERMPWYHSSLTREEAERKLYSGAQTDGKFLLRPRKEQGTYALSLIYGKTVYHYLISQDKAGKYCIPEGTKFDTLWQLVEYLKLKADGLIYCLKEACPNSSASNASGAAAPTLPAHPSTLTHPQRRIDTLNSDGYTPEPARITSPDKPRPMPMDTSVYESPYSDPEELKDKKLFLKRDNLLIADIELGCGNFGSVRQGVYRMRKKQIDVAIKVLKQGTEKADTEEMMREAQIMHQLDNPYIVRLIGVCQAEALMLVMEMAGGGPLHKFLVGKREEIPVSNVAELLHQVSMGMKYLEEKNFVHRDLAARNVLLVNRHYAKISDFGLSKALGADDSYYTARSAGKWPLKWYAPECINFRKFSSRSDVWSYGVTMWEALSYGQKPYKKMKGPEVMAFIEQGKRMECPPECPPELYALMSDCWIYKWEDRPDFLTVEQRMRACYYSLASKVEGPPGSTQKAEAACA
Protocol: Compounds were screened for their ability to inhibit ZAP-70 using a standard coupled enzyme assay (Fox et al., Protein Sci. 1998, 7, 2249). Assays were carried out in a mixture of 100 mM HEPES (pH 7.5), 10 mM MgCl2, 25 mM NaCl, 2 mM DTT and 3% DMSO. Final substrate concentrations in the assay were 100 μM ATP (Sigma Chemicals) and 20 μM peptide (poly-4EY, Sigma Chemicals). Assays were carried out at 30° C. and 60 nM ZAP-70. Final concentrations of the components of the coupled enzyme system were 2.5 mM phosphoenolpyruvate, 300 μM NADH, 30 μg/ml pyruvate kinase and 10 μg/ml lactate dehydrogenase.
An assay stock buffer solution was prepared containing all of the reagents listed above, with the exception of ZAP-70 and the test compound of interest of the present invention. 55 μl of the stock solution was placed in a 96 well plate followed by addition of 2 μl of DMSO stock containing serial dilutions of the test compound of the present invention (typically starting from a final concentration of 15 μM). The plate was preincubated for 10 minutes at 30° C. and the reaction initiated by addition of 10 μl of enzyme (final concentration 60 nM). Initial reaction rates were determined with a Molecular Devices SpectraMax Plus plate reader over a 15 minute time course. Ki data was calculated from non-linear regression analysis using the Prism software package (GraphPad Prism version 3.0a for Macintosh, GraphPad Software, San Diego Calif., USA).

Row | SMILES | Ki [1] [µM] | Ki [2] [µM]
1 | CC(=O)Nc1cc(C)cc(Nc2nccc(-c3ncc(C)s3)n2)c1 [Example I-154] | ≤ 5 | ≤ 5
2 | Cc1cc(Nc2nccc(-c3ncc(C)s3)n2)cc(NS(C)(=O)=O)c1 [Example I-155] | ≤ 5 | ≤ 5
3 | COCc1cc(N)cc(Nc2nccc(-c3ncc(C)s3)n2)c1 [Example I-156] | ≤ 5 | ≤ 5
